# Results published in patent publication US8853173B2, “Synthetic glycolipid and use thereof” (RIKEN, priority 2010, dated 2014).
# Columns and labels:
# NKT cells [1] = test: Influence of synthetic glycolipid on cytokine production of NKT cells: IFN-γ in mouse plasma after tail vein administration; format: in vivo, C57BL/6 mice; conditions: 100 μg/kg body weight, Cytometric Bead Array, data in FIG. 1-3
# Method: A solution of each of α-GalCer (KRN7000), compound F and compound H in dimethyl sulfoxide (DMSO) was prepared at a concentration of 1 mg/mL. The above-mentioned DMSO solution was diluted with saline (manufactured by Otsuka Pharmaceutical Co., Ltd.) containing 0.5% tween 20 (Bio-Rad) such that the dose became 100 μg/kg body weight when 200 μL per mouse was administered from the tail vein.
# The prepared solutions (200 μL) of compounds F and H were respectively injected to C57BL/6 mice (5 mice per group) from the tail vein. As a control substance, α-GalCer (KRN7000) was used, and a solution (200 μL) of α-GalCer (KRN7000) prepared in the same manner such that the dose became 100 μg/kg body weight was injected into the tail vein. The group administered with saline (200 μL) containing 0.5% tween 20 (medium) was used as a negative control. The blood (80 μL) immediately before administration and after administration (after lapse of the time indicated in FIGS. 1-3) was collected from the orbital sinus and plasma was prepared.
# The IFN-γ content of the plasma before administration and after administration (after lapse of the time indicated in FIG. 1) was measured by Cytometric Bead Array system (BD Biosciences) which is one of the ELISA methods. The measurement results (mean) of the production amount of IFN-γ and the standard deviation thereof (STDEV) are shown in FIG. 1.
# NKT cells [2] = conditions: cited from earlier work
# NKT cells of mouse = conditions: cited from earlier work
# human NKT cells = conditions: cited from earlier work
# NKT cells [3] = conditions: cited from earlier work; remark: listed apart in the source
# NKT cells [4] = conditions: cited from earlier work; remark: listed apart in the source
# NKT cells [5] = conditions: cited from earlier work; remark: listed apart in the source
# NKT cells [6] = conditions: cited from earlier work; remark: listed apart in the source
structure (smiles),measurement,setting,value
"CCCCCCCCCCCCCCCCCCCCCCCCNC(=O)N[C@@H](CO[C@H]1O[C@H](CO)[C@H](O)[C@H](O)[C@H]1O)[C@H](O)[C@H](O)CCCCCCCCCCCCCC [compound F, (2S,3S,4R)-1-(α-D-galactopyranosyloxy)-2-(tetracosylureido)-3,4-octadecanediol]",IFN-γ production compared with α-GalCer (KRN7000),NKT cells [1],selectively induced IFN-γ production in larger amounts than α-GalCer (KRN7000)
CCCCCCCCCCCCCCCCCCCCCCCCCC(=O)N[C@@H](COC1OC(CO)C(O)C(O)C1O)[C@H](O)[C@H](O)CCCCCCCCCCCCCC (some centres unmarked) [KRN7000],immunostimulatory activity among synthesized analogs,NKT cells [2],shows the strongest activity
"CCCCCCCCCCCCCCCCCCCCCCCCNC(=O)N[C@@H](CO[C@H]1O[C@H](COC)[C@H](O)[C@H](O)[C@H]1O)[C@H](O)[C@H](O)CCCCCCCCCCCCCC [compound H, (2S,3S,4R)-1-(6-O-methyl-α-D-galactopyranosyloxy)-2-(tetracosylureido)-3,4-octadecanediol]",IFN-γ production compared with α-GalCer (KRN7000),NKT cells [1],selectively induced IFN-γ production in larger amounts than α-GalCer (KRN7000)
CCCCCCCCCCCCCCCCCCCCCCCCCC(=O)N[C@@H](CCC1OC(CO)C(O)C(O)C1O)[C@H](O)[C@H](O)CCCCCCCCCCCCCC (stereo partly drawn) [α-C-GalCer],activation of mouse NKT cells and IFN-γ production,NKT cells of mouse,strongly activates NKT cells of mouse and preferentially produces IFN-γ
same,activity in vitro on human NKT cells,human NKT cells,hardly shows activity
CCCCCCCCCCCCCCCCCCCCCCCCC(F)(F)C(=O)N[C@@H](COC1OC(CO)C(O)C(O)C1O)[C@H](O)[C@H](O)CCCCCCCCCCCCCC (some centres unmarked) [compound 6],type of cytokine production induced,NKT cells [3],induce production of mostly Th2 type cytokines such as IL-4
CCCCCCCCCCCCCCCCCCCCCCCCCC(=O)N[C@@H](COC1CC(CO)C(O)C(O)C1O)[C@H](O)[C@H](O)CCCCCCCCCCCCCC (some centres unmarked) [RCAI-56],activity in the system of mouse,NKT cells [4],strong activity
same,activity in the system of human (in vitro),NKT cells [5],strong activity
same,NKT cell activation / IFN-γ production,NKT cells [6],strongly activates NKT cells and induces production of a large amount of IFN-γ
CCCCCCCCCCCCCCCCCCCCCCCCCC(=O)N[C@@H](COC1OC(COC)C(O)C(O)C1O)[C@H](O)[C@H](O)CCCCCCCCCCCCCC (some centres unmarked) [RCAI-61],activity in the system of mouse,NKT cells [4],strong activity
same,activity in the system of human (in vitro),NKT cells [5],strong activity
same,NKT cell activation / IFN-γ production,NKT cells [6],induces production of IFN-γ in large amounts
CCCCCCCCCCCCCCCCS(=O)(=O)N[C@@H](COC1OC(CO)C(O)C(O)C1O)[C@H](O)[C@H](O)CCCCCCCCCCCCCC (some centres unmarked) [compound 5],type of cytokine production induced,NKT cells [3],induce production of mostly Th2 type cytokines such as IL-4
CCCCCCCCCCCCCCCCCCCCCCCCc1cn([C@@H](COC2OC(CO)C(O)C(O)C2O)[C@H](O)[C@H](O)CCCCCCCCCCCCCC)nn1 (some centres unmarked) [compound 7],type of cytokine production induced,NKT cells [3],induce production of mostly Th2 type cytokines such as IL-4
